Test [1] concerns Arabidopsis thaliana third true leaf. Briefly: Growth (kinematic) analysis of the third leaf after transfer of seedlings to mannitol- or ACC-containing medium. Type of test: in vivo. To be noted: for reduction in leaf area: 72 h after transfer to mannitol (12 DAS). As for the experimental part: Arabidopsis seedlings were germinated and grown on nylon meshes overlaying control medium until 9 days after stratification (DAS), when the third true leaf is fully proliferating (Skirycz et al., 2010), and subsequently transferred to control or mannitol-containing medium (FIGS. 1A to 10). Kinematic analysis was performed, whereby leaves were harvested daily throughout development of leaf 3 (9-20 DAS) and based on drawings of the abaxial epidermis cell number, cell area, number of guard cells and cell division and cell expansion rates were calculated (De Veylder et al., 2001). […] Leaf and plant morphology were not altered by mannitol (FIG. 2C). Cell expansion was also affected by stress and the reduced final leaf area was a combination of fewer and smaller cells (FIG. 2D). The stomatal index, which represents the number of stomata as a fraction of the total number of cells, was reduced as well (FIG. 2E). To learn more about the mechanisms underlying the rapid reduction of cell division upon stress onset, we harvested leaf samples daily after transfer. As a measure of cellular differentiation, the ploidy distribution was examined by flow cytometry. […] In stressed leaves, 4C nuclei started to accumulate approximately one day earlier than in controls at the expense of 2C nuclei (FIG. 3A). Analogously, the number of 8C nuclei increased sharply at 14 DAS in stressed leaves, but only at 15 DAS in control samples (FIG. 3A). Again, transfer itself had no effect on ploidy levels (not shown). […] This observation was further investigated with a CYCB1;1:Dbox-GUS reporter line. Staining for CYCB1;1:Dbox-GUS activity visualizes cells at the G2-to-M transition, reflecting mitotic activity (Colón-Carmona et al., 1999). The most apparent differences were observed 48 h after transfer. […] While the relative size of the cell proliferation zone was similar in mannitol-treated leaves, the remaining proliferating cells were found in a dispersed pattern throughout this zone. […] Within a few days after transfer, division rates adapted to the new conditions and compensation effects were observed.
Seedlings of Arabidopsis thaliana (L.) Heyhn. ecotype Columbia-0 (Col-0) were grown in vitro in half-strength Murashige and Skoog medium (Murashige and Skoog, 1962), supplemented with 1% sucrose under a 16-h day (110 μmol m^−2 s^−1) and 8-h night regime. Plates were overlaid with nylon mesh (Prosep, Zaventem, Belgium) of 20 μm pore size to avoid that roots grew into the medium. Depending on the experiment, 32 or 64 seeds were equally distributed on a 150-mm diameter plate. Mutant plants were grown together with their wild-type controls on the same plate.
At 9 DAS, when the third leaf is fully proliferating, seedlings were transferred to plates containing control medium or medium supplemented with 25 mM mannitol (Sigma-Aldrich) or 5 μM ACC (Sigma-Aldrich) by gently lifting the nylon mesh with forceps. For the CDKA activity assay the transfer was done at 11 DAS; at this stage, the third leaf is still dividing and can be quickly harvested without the need for RNAlater solution (see below) that would inhibit CDKA activity. All transfers were performed 2-3 h into the day.
Growth analysis was performed on the third true leaf harvested at different time points after transfer. After clearing with 70% ethanol, leaves were mounted in lactic acid on microscopic slides. For each experiment, 8-12 leaves were photographed with a binocular, and epidermal cells (40-300) were drawn for four representative leaves with a DMLB microscope (Leica) fitted with a drawing tubus and a differential interference contrast objective. Photographs of leaves and drawings were used to measure leaf and cell area, respectively, with ImageJ v1.41o (NIH; http://rsb.info.nih.gov/ij/), from which the cell numbers were calculated. The stomatal index was defined as the percentage of stomata per all cells. […]

The test system is the same in test [2]. Briefly: Ploidy analysis of leaf 3 by flow cytometry (endoreduplication onset). The class given is in vivo. Particulars: transfer at 9 DAS to 25 mM mannitol or 5 μM ACC. As for the experimental part: Arabidopsis seedlings were germinated and grown on nylon meshes overlaying control medium until 9 days after stratification (DAS), when the third true leaf is fully proliferating (Skirycz et al., 2010), and subsequently transferred to control or mannitol-containing medium (FIGS. 1A to 10). Kinematic analysis was performed, whereby leaves were harvested daily throughout development of leaf 3 (9-20 DAS) and based on drawings of the abaxial epidermis cell number, cell area, number of guard cells and cell division and cell expansion rates were calculated (De Veylder et al., 2001). […] Leaf and plant morphology were not altered by mannitol (FIG. 2C). Cell expansion was also affected by stress and the reduced final leaf area was a combination of fewer and smaller cells (FIG. 2D). The stomatal index, which represents the number of stomata as a fraction of the total number of cells, was reduced as well (FIG. 2E). To learn more about the mechanisms underlying the rapid reduction of cell division upon stress onset, we harvested leaf samples daily after transfer. […]
For flow cytometry analysis, nuclei were extracted by chopping 4-32 leaves with a razor blade in 1 ml of 45 mM MgCl2, 30 mM sodium citrate, 20 mM 3-(N-morpholino)propanesulfonic acid, pH 7, and 1% Triton X-100 (Galbraith et al., 1983). […] The nuclei were analyzed with a CyFlow flow cytometer with the FloMax Software (Partec).
On the technique in general: A flow cytometer gives signals particle by particle.

Test [3] concerns CYCB1;1:Dbox-GUS reporter line. Briefly: CYCB1;1:DBox-GUS staining of mitotic activity in leaf 3. To be noted: 48 h after transfer to 25 mM mannitol or 5 μM ACC. Type of test: in vivo, Arabidopsis thaliana. The method, then: Arabidopsis seedlings were germinated and grown on nylon meshes overlaying control medium until 9 days after stratification (DAS), when the third true leaf is fully proliferating (Skirycz et al., 2010), and subsequently transferred to control or mannitol-containing medium (FIGS. 1A to 10). Kinematic analysis was performed, whereby leaves were harvested daily throughout development of leaf 3 (9-20 DAS) and based on drawings of the abaxial epidermis cell number, cell area, number of guard cells and cell division and cell expansion rates were calculated (De Veylder et al., 2001). […] Leaf and plant morphology were not altered by mannitol (FIG. 2C). Cell expansion was also affected by stress and the reduced final leaf area was a combination of fewer and smaller cells (FIG. 2D). The stomatal index, which represents the number of stomata as a fraction of the total number of cells, was reduced as well (FIG. 2E). To learn more about the mechanisms underlying the rapid reduction of cell division upon stress onset, we harvested leaf samples daily after transfer. As a measure of cellular differentiation, the ploidy distribution was examined by flow cytometry. […] In stressed leaves, 4C nuclei started to accumulate approximately one day earlier than in controls at the expense of 2C nuclei (FIG. 3A). […]

[4] abbreviates: transfer at 9 DAS to 25 mM mannitol or 5 μM ACC, leaf 3.

Each structure is given as a SMILES string.

With `OC[C@@H](O)[C@@H](O)[C@H](O)[C@H](O)CO` [mannitol], the “leaf and plant morphology” value in test [1] (25 mM mannitol) was “not altered”. Further, the “reduction of leaf area” value in test [1] (25 mM mannitol in growth medium) was “approximately 50%”. The “reduction in leaf area” value is listed as ~20% in test [1] (ein5.1 mutant), ~30% in test [1] (etr1.3 mutant) and ~45% in test [1] (wild type). Further, the cell proliferation rates result in test [1] (setting [4]) is given as “reduced proliferation rates”. For the same molecule, the stomatal index entry in test [1] (setting [4]) was “reduced”. Further, the endoreduplication onset result in test [2] is recorded as “faster onset of endoreduplication”. In addition, in test [3], the “number of mitotic cells (CYCB1;1:DBox-GUS activity)” value is recorded as “reduced number of mitotic cells”.
